Measurements: patent US9969694B2, “N-(arylalkyl)-N′-pyrazolyl-urea, thiourea, guanidine and cyanoguanidine compounds as TrkA kinase inhibitors” (Array BioPharma Inc., priority 2012, dated 2018)

Target: T1, His-tagged recombinant human TrkA (Homo sapiens, UniProt P04629)
T1 construct: 6HIS tagged cytoplasmic domain from Invitrogen, Catalog No. PV3144; purchased Invitrogen PV3144
Assay: TrkA Kinase Binding Assay (LanthaScreen Eu)
Settings: averaged IC50; TR-FRET binding, 60 min, 22° C.; read-out: TrkA Enzyme IC50
Experimental: TrkA binding activity was determined in a TrkA LanthaScreen™ Eu Kinase Binding Assay. 5 nM His-tagged recombinant human TrkA (6HIS tagged cytoplasmic domain from Invitrogen, Catalog No. PV3144) was incubated with 4 nM Alexa-Fluor® Tracer 236 (Invitrogen Cat. No. PV5592), 2 nM biotinylated anti-His (Invitrogen Cat. No. PV6090), and 2 nM europium-labeled Streptavidin (Invitrogen Cat. No. PV5899), in buffer (25 mM MOPS, pH 7.5, 5 mM MgCl2, 0.005% Triton X-100). Three fold serial dilutions of compounds of the invention in DMSO were added to a final percentage of 2% DMSO. After 60-minute incubation at 22° C., the reaction was measured using the EnVision mutlimode plate reader (PerkinElmer) via TR-FRET dual wavelength detection at […]. The percent of control was calculated using a ratiometric emission factor. The IC50 values were determined by fitting a four parameter model to the percent of control data.
Table A provides averaged IC50 values for compounds of the invention when tested in the assay of Example A, where A represents an averaged IC50 value <100 nM; B represents an averaged IC50 value from 100 to 1,000 nM; and C represents an average 1050 value above 1000 nM.

T1 sequence (P04629 440-796 limits assumed): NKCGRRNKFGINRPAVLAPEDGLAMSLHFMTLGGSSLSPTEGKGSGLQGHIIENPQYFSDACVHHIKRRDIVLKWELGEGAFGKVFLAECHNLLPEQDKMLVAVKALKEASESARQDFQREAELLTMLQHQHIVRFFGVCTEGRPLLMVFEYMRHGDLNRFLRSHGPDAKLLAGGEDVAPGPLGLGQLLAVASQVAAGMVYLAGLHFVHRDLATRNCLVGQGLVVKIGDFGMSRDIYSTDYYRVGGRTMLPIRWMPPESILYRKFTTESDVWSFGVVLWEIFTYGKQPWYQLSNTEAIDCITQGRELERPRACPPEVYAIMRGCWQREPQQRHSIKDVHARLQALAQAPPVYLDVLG

| SMILES | IC50 [µM] |
| --- | --- |
| COCc1ccc(OC(F)(F)F)c(CNC(=O)Nc2c(C)c(OC3CN4CCC3CC4)nn2-c2ccccc2)c1 (stereo not shown) [Example 130, 1-(5-(methoxymethyl)-2-(trifluoromethoxy)benzyl)-3-(4-methyl-1-phenyl-3-(quinuclidin-3-yloxy)-1H-pyrazol-5-yl)urea] | < 0.1 |
| COCc1ccc(OC(F)(F)F)c(CNC(=O)Nc2c(C)c(-c3cnc(OC)nc3)nn2-c2ccccc2)c1 [Example 59, 1-(5-(methoxymethyl)-2-(trifluoromethoxy)benzyl)-3-(3-(2-methoxypyrimidin-5-yl)-4-methyl-1-phenyl-1H-pyrazol-5-yl)urea] | < 0.1 |
| COCc1ccc(OC(F)(F)F)c(CNC(=O)Nc2c(C)c(O[C@@H]3CCN(C)C3)nn2-c2ccccc2)c1 [Example 82, (R)-1-(5-(methoxymethyl)-2-(trifluoromethoxy)benzyl)-3-(4-methyl-3-((1-methylpyrrolidin-3-yl)oxy)-1-phenyl-1H-pyrazol-5-yl)urea] | < 0.1 |
| COCc1ccc(C2CC2)c(CNC(=O)Nc2c(C)c(-c3ccc(=O)n(C)c3)nn2-c2ccccc2)c1 [Example 4, 1-(2-cyclopropyl-5-(methoxymethyl)benzyl)-3-(4-methyl-3-(1-methyl-6-oxo-1,6-dihydropyridin-3-yl)-1-phenyl-1H-pyrazol-5-yl)urea] | < 0.1 |
| CCOc1nn(-c2ccccc2)c(NC(=O)NCc2cc(COC)ccc2C2CC2)c1C [Example 2, 1-(2-cyclopropyl-5-(methoxymethyl)benzyl)-3-(3-ethoxy-4-methyl-1-phenyl-1H-pyrazol-5-yl)urea] | < 0.1 |
| COCc1ccc(C2CCC2)c(CNC(=O)Nc2c(C)c(=O)[nH]n2-c2ccccc2)c1 [Example 122, 1-(2-cyclobutyl-5-(methoxymethyl)benzyl)-3-(4-methyl-5-oxo-2-phenyl-2,5-dihydro-1H-pyrazol-3-yl)urea] | < 0.1 |
| COCc1ccc(OC(F)(F)F)c(CNC(=O)Nc2c(C)c(O[C@@H]3CCNC[C@@H]3F)nn2-c2ccccc2)c1 [Example 99, 1-(3-(((3S,4R)-3-fluoropiperidin-4-yl)oxy)-4-methyl-1-phenyl-1H-pyrazol-5-yl)-3-(5-(methoxymethyl)-2-(trifluoromethoxy)benzyl)urea] | < 0.1 |
| COCc1ccc(OC(F)(F)F)c(CNC(=O)Nc2c(C)c(OC[C@@H]3CCNC[C@H]3F)nn2-c2ccccc2)c1 [Example 87, 1-(3-(((3S,4S)-3-fluoropiperidin-4-yl)methoxy)-4-methyl-1-phenyl-1H-pyrazol-5-yl)-3-(5-(methoxymethyl)-2-(trifluoromethoxy)benzyl)urea] | < 0.1 |
| COCc1ccc(OC(F)(F)F)c(CNC(=O)Nc2c(C)c(OCC3CN(C)C3)nn2-c2ccccc2)c1 [Example 75, 1-(5-(methoxymethyl)-2-(trifluoromethoxy)benzyl)-3-(4-methyl-3-((1-methylazetidin-3-yl)methoxy)-1-phenyl-1H-pyrazol-5-yl)urea] | < 0.1 |
| COCc1ccc(C2CC2)c(CNC(=O)Nc2c(C)c(C)nn2-c2ccccc2)c1 [Example 5, 1-(2-cyclopropyl-5-(methoxymethyl)benzyl)-3-(3,4-dimethyl-1-phenyl-1H-pyrazol-5-yl)urea] | < 0.1 |
| CC(Cc1ccccc1)(NC(=O)Nc1c2c(nn1-c1ccccc1)CCC2)c1ccccc1 (stereo not shown) [Example 41, 1-(1,2-diphenylpropan-2-yl)-3-(2-phenyl-2,4,5,6-tetrahydrocyclopenta[c]pyrazol-3-yl)urea] | 0.1 to 1 |
| CSc1ccc(C2CCC2)c(CNC(=O)Nc2c(C)c(-c3cnn(C)c3)nn2-c2ccccc2)c1 [Example 127, 1-(2-cyclobutyl-5-(methylthio)benzyl)-3-(1′,4-dimethyl-1-phenyl-1H,1H-[3,4′-bipyrazol]-5-yl)urea] | 0.1 to 1 |
| COCc1ccc(OC(F)(F)F)c(CNC(=O)Nc2c(C)c(OC[C@H]3CCN3)nn2-c2ccccc2)c1 [Example 91, (R)-1-(3-(azetidin-2-ylmethoxy)-4-methyl-1-phenyl-1H-pyrazol-5-yl)-3-(5-(methoxymethyl)-2-(trifluoromethoxy)benzyl)urea] | < 0.1 |
